# Results: US20250320250A1, “PHARMACEUTICAL COMPOSITIONS FOR THE TREATMENT OF VISCERAL PAIN” (Ironwood Pharmaceuticals, Inc., priority 2021, published 2025)
# Tested on: visceral hypersensitivity and bladder dysfunction
# Assay: Nonclinical pharmacology models of visceral hypersensitivity and bladder dysfunction
# Assay type: in vivo
# Conditions: doses above 10 μg/kg/day
# Method: The peptide of the present disclosure doses of 100 μg and 300 μg were selected based on nonclinical pharmacology models of visceral hypersensitivity and bladder dysfunction using the peptide of the present disclosure and another GC-C agonist, linaclotide, with similar activity. […] The human equivalent daily dose (HED) extrapolated from pharmacologically active dose levels in nonclinical models is 180 μg to 600 μg (based on body weight) and 15 μg to 100 μg based on body surface area. Choosing 2 doses for investigation in this study should allow for observation of a dose response.
substance,measurement,value
"peptide of the present disclosure: GC-C agonist peptide, active pharmaceutical ingredient of the rectal foam composition (CXELCCNVACYGC; not fully specified; SITE 2 X is a homocysteine contributing to a cystathionine unit (linking the homocysteine at residue 2 and cysteine at residue 10 via a thioether bond); DISULFID 1..6 Intrachain; DISULFID 5..13 Intrachain; CROSSLNK 2..10 homocysteine at position 2 and the cysteine at position 10 are connected by an internal sulfide (or thioether bond); SITE 1 Optionally acetylated N-terminus)",benefit at higher doses,diminishing benefit
